Measurements: patent US12246034B2, “Animal feed supplement and method” (CAN TECHNOLOGIES, INC., priority 2014, dated 2025)
Where two headings read alike, the source gives them in different places.

Legend:
[1] = test system: sows; settings: for NBA (Number Born Alive) / TNB (Total Number Born) / Litter growth, 24 hour to 3 days / Litter growth, Start to 24 hour / Litter growth, Start to 3 days / Piglet weight, 24 hour / Piglet weight, 3 days / Piglet weight, Start / Birth weight: LS Means ± SEM; for NBD (Number Born Death), stillborn piglets / Mortality: log transformed, back-transformed to absolute values; for Litter weight, 24 hour / Litter weight, 3 days / Litter weight, Start: corrected for mortality and cross fostering; for Birth weight: litter
Protocol: A field trial was conducted on a commercial farm in Denmark with 650 highly productive Danbred sows (Landrace x Yorkshire) inseminated with a pure line Duroc boar, between Nov. 17, 2014 and Jan. 16, 2015. A total of 139 sows (total number before analyzes) were included in the trial, divided over 3 subsequent sow groups farrowing over a time span of 6 weeks. For all analyzes SAS software (version 9.3, SAS Institute Inc., Cary, N.C.) was used. Sows received a dry meal transition feed (from gestation to lactation), fed from day 111 of gestation till day 5 of lactation, and were allocated to one of the two treatment groups based on parity. […] The total amount of calcium was equal between both experimental treatments. Number born alive (NBA), stillborn and mummies, litter birth weight, as well as back fat of the sows before farrowing (day 110 of gestation) and at weaning (day 24 of lactation) were measured. Litter weights at 24 hours and 3 days after birth were measured as well. On day 3 after birth blood samples were taken from 6 piglets (2 biggest, 2 medium and 2 smallest) from 65 litters of their tails when they were cut and analyzed on immunoglobulin G (IgG) concentration. Placentas of the sows were collected after the farrowing process was finished, stored in freezers and afterwards scored on redness for an indication of the vascularization of these placentas.

[2] = test system: sows; settings: for Probability of piglet Livability: 1-((stillborn + died pre weaning)/total pigs after cross fostering)
From the text: During lactation, sows were fed either the positive control or negative control standard lactation diet according to a step-up feeding schedule. Until farrowing the sows were fed a fixed amount of either the positive or negative controls of the standard lactation diet twice a day. After farrowing the amount of feed either the positive or negative controls of the standard lactation diet fed was increased gradually till a maximum of 8 kg/sow per day. The amount of which could be adjusted based on the appetite of the sow. Piglets were fed Ad libitum (no milk was provided other than from the sow a commercial creep feed (meal, dry) from day 4-16 of age and a pelleted commercial prestarter from day 16 till weaning. In total, 150 sows were allocated over the three rooms based on parity. Within 2 days after farrowing, litters were standardized to 13-14 piglets per sow.
The following measurements were recorded as shown in TABLE 1C: (i) sow weight and backfat thickness when entering the farrowing room (day 111 of gestation) and at weaning (22 days post farrowing); (ii) sow reproductive performance was recorded right after farrowing (number of piglets born total, alive, stillborn, mummified); (iii) piglets weights were recorded at birth, day 5 after birth and at weaning; (iv) creep feed intake of piglets between day 4 and weaning was recorded; (v) number of piglets alive at day 4 and at weaning were registered; (vi) when piglets died, the reason for dying was also registered; and (vii) interventions during the birth process (e.g. the use of planate, oxytocin and birth assistance).

[3] = test system: sows; settings: 0.1% calcium nitrate in phase 1 diet, 19 May 2014 till 16 Aug. 2014
Protocol: 600 sows and all sows were fed two diets over the test period. The first diet (phase 1) was fed from approximately 5 days pre-farrowing until 5 days post-farrowing. The second diet (phase 2) was fed from day 5 post-farrowing until weaning.
The following measurements were recorded as shown in TABLE 2A: (i) gestation length; (ii) sow reproductive performance was recorded right after farrowing (number of piglets born total, alive, stillborn); (iii) piglet; (iv) total piglets weaned; (v) weaning weights; and (vi) piglets per sow per year; and […].

[4] = 0.1% Bolifor CNF in transition feed, listed as Bolifor CNF ®
[5] = 0.1% Bolifor CNF in transition feed, listed as Bolifor CNF®
[6] = 0.1% Bolifor CNF, listed as Bolifor CNF ®
[7] = 0.1% Bolifor CNF, listed as Bolifor CNF®
[8] = 0.1% Bolifor CNF in lactation diet, means
[9] = 0.1% Bolifor CNF, induction of sows as covariable
[10] = 0.1% Bolifor CNF, induction of sows as covariable, listed as calcium nitrate
[11] = piglets, 0.1% Bolifor CNF, corrected for lactation length

## O=[N+]([O-])[O-].O=[N+]([O-])[O-].[Ca+2] [Bolifor CNF, calcium nitrate]
[1]; [4]
  NBA (Number Born Alive): 16.84 ± 0.170
  TNB (Total Number Born): 17.90 ± 0.460
  NBD (Number Born Death), stillborn piglets: 1.32 ± 0.006
  Birth weight: 21.70 ± 0.614 kg
[1]; [5]
  NBA (Number Born Alive): 16.84
  TNB (Total Number Born): did not differ
  NBD (Number Born Death), stillborn piglets: 1.32
  Birth weight: did not differ
[1]; [6]
  Litter growth, 24 hour to 3 days: 1.80 ± 0.140 kg/day
  Litter growth, Start to 24 hour: 1.21 ± 0.161 kg/day
  Litter growth, Start to 3 days: 3.03 ± 0.234 kg/day
  Piglet weight, 24 hour: 1.41 ± 0.012 kg
  Piglet weight, 3 days: 1.55 ± 0.018 kg
  Piglet weight, Start: 1.32 ± 0.046 kg
  Litter weight, 24 hour: 18.14 kg
  Litter weight, 3 days: 19.93 kg
  Litter weight, Start: 16.70 kg
  Piglet growth, 24 hour to 3 days: 0.140 kg/day
  Piglet growth, Start 3 days: 0.235 kg/day
  Piglet growth, Start to 24 hour: 0.093 kg/day
  Mortality: 1.87
[1]; [7]
  Litter growth, 24 hour to 3 days: no differences were found
  Litter growth, Start to 24 hour: no differences were found
  Litter growth, Start to 3 days: no differences were found
  Piglet weight, 24 hour: did not differ
  Piglet weight, 3 days: did not differ
  Piglet weight, Start: did not differ
  Litter weight, 24 hour: did not differ
  Litter weight, 3 days: did not differ
  Litter weight, Start: did not differ
  Piglet growth, 24 hour to 3 days: no differences were found
  Piglet growth, Start 3 days: no differences were found
  Piglet growth, Start to 24 hour: no differences were found
  Mortality: did not differ
[1]; 0.1% Bolifor CNF, calculated colostrum intake
  Colostrum, CI per piglet: 222.02 g
[1]; 0.1% Bolifor CNF, calculated colostrum intake, listed as Bolifor CNF ®
  Colostrum, CI (Colostrum Intake): 2858.60 g
[1]; 0.1% Bolifor CNF, calculated colostrum intake, listed as Bolifor CNF®
  Colostrum, CI (Colostrum Intake): No differences were found
[1]; parities >4, 0.1% Bolifor CNF in transition feed
  NBD, highest parity group: 1.21
[2]; 0.1% Bolifor CNF in lactation diet
  Probability Born Mummified: 2.3%
[2]; [8]
  Total born: 16.3
  Total born alive: 15.3
  Total still born: 1.0
  Total weaned: 13.1
[2]; 0.1% Bolifor CNF
  Probability of piglet Livability: 89.8
[2]; 0.1% Bolifor CNF, listed as calcium nitrate
  Probability of piglet Livability: numerically higher
[2]; [9]
  Probability Still Born: 6.2%
  Probability born alive: 93.8%
  Probability of piglet mortality from cross fostering (day 4-5)-weaning: 2.0%
  Probability of piglets alive at day 4-5: 92.5%
[2]; [10]
  Probability Still Born: numerically lower
  Probability born alive: numerically higher
[2]; piglets, 0.1% Bolifor CNF
  ADG 0-5: 157 g/day
  ADG 5-weaning: 245.3 g/day
  Average birth weight: 1.36 kg
  Average weight post fostering: 2.30 kg
  Litter weight Pre fostering: 19.8 kg
[2]; piglets, 0.1% Bolifor CNF, calculated, not measured
  Litter weight post fostering: 30.8 kg
[2]; [11]
  Average weight at weaning: 6.71 kg
  Litter weight at weaning: 82.0 kg
[2]; piglets, 0.1% Bolifor CNF, corrected for lactation length, listed as calcium nitrate
  Litter weight at weaning: numerically higher
[3]
  Born Alive: 15.8
  Mortality: 10.5%
  Piglets/sow/year: 34.1
  Pregnancy rate: 94.5%
  Total born: 17.3
  Weaning weight: 6.7 kg
[3]; listed as Calcium nitrate
  Piglet Livability: 82.7%
  Piglets Weaned: 14.3
  Still Born: 1.5
[3]; listed as calcium nitrate
  Piglet Livability: increase
  Piglets Weaned: increase
  Still Born: decrease
